From patent US8367715B2, “Pyrazole derivatives, preparation thereof, and therapeutic use thereof” (priority 2009, dated 2013) come the findings set out here.

Molecules are shown by their SMILES.

The test system of one series is human hepatocytes. Description: Intrinsic clearance using human hepatocytes. Format: in vitro ADME. As to conditions: for intrinsic clearance value: 5 μM, 0-24 hours; for inter-individual variability of intrinsic clearance: cryopreserved and fresh donor preparations. The procedure:
Evaluation of the intrinsic clearance of the compounds using human hepatocytes: experimental protocol.
NB: The in vitro test described below on human liver cells is used to predict an important pharmacokinetic parameter: the metabolization by the liver for a given compound when it is administered to man.
Incubations of cryopreserved preparations of human hepatocytes (from IVT: IVT-TLN-180608 from In Vitro Technologies, inc. Baltimore, Md., USA) and fresh preparations of human hepatocytes (from Biopredic: HEP200239) were carried out in plates comprising 48 collagen-coated wells.
The kinetics were initiated by the addition, to the culture medium, of the compounds at a final concentration of 5 μM, in the absence or in the presence of 10 μM ketoconazole (CYP3A4 inhibitor). The incubation volume is 100 μl, the incubation time: 0-24 hours (standard kinetic points: 0-0.5-1-2-4-6-8-24 hours).
The kinetics were stopped by addition of acetonitrile/water, with corticosterone, as an internal standard. The cells were detached then lysed. The intracellular and extracellular media were recombined and frozen (−20° C.) in order to be stored until the LC-MS/MS analysis.
The combined extracellular and intracellular media were defrosted, submitted to ultrasound action, agitated with a vortex and centrifuged at 3000 g for 20 minutes. The supernatants were injected and analysed by LC-MS/MS.
The maximum initial in vitro rate was calculated for the specific metabolites of the P450 cytochromes and expressed in nmol/hour/million of cells. V=[concentration at T(n)−concentration at T(n−1)]/[T(n)−T(n−1)]
The intrinsic clearance was determined and expressed in ml/hour/million of cells Clint=dose/AUC0-24 h Dose=amount at T(0)(nmol/million of cells)
AUC0-24 h: calculated by WinNonlin, with a non-compartmental analysis modeling an intravenous injection of bolus type
From IVT: ● IVT, TLN group: person
From Biopredic: ● HEP200239: person, unknown

The target of another series is T1, human Tie2 (Homo sapiens, UniProt Q02763).
T1 construct: human Tie2 corresponding to the amino acids of the intracellular domain 774-1124; made in house; host or cells: baculovirus expression (pFastBacGT)
T1 sequence (Q02763 774-1124): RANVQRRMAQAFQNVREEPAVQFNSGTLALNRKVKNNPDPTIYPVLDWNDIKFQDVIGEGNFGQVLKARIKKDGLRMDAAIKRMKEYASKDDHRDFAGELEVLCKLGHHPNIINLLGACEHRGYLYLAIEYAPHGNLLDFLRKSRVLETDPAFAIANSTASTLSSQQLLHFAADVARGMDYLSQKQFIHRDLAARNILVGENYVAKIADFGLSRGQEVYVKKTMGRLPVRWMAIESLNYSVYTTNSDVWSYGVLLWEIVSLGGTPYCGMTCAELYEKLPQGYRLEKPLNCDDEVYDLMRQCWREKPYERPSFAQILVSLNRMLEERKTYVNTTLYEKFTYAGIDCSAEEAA
Description: Tie2 kinase inhibition, phosphorylation of PLCγ substrate, scintillation Flash Plate. Type of series: biochemical. As to conditions: read-out: Tie2, concentration that inhibits 50% of the kinase activity. The procedure:
(§1) The inhibitory effect of the compounds is determined in an in vitro test of phosphorylation of substrate via a scintillation technique (96-well plate of basic Flash Plate type).
The coding sequence of human Tie2 corresponding to the amino acids of the intracellular domain 774-1124 was introduced into a pFastBacGT baculovirus expression vector in the form of a GST fusion protein. GST-Tie2 was purified and activated by autophosphorylation. The substrate is composed of residues 658 to 850 of the PLCγ expressed and purified in the form of a GST fusion protein.
The kinase activity of Tie2 is measured in a MOPS 20 mM pH 7.4 buffer, containing 10 mM MgCl2, 10 mM MnCl2 and 1 mM DTT. The compounds are initially diluted in 100% DMSO, then prepared as a 10× solution in 30% DMSO/70% buffer. […] The radioactivity in each well is measured using a Trilux-βWallac radioactivity counter.
(§2) The background noise is determined by measuring the radioactivity in four different wells containing ATP (radiolabeled and cold) and the substrate, in the absence of enzyme and of compound. The control activity is measured in four different wells containing all the reagents, but in the absence of compound.
The inhibition of the Tie2 activity is calculated and expressed as a percentage of inhibition relative to the control activity determined in the absence of compound.

Another series deals with T2, human KDR enzyme (Homo sapiens, UniProt P35968).
T2 construct: The cytoplasmic domain (residues 790 to 1356) of the human KDR enzyme; GST; made in house; host or cells: SF21 insect cells (baculovirus, pFastBac)
T2 sequence (P35968 790-1356): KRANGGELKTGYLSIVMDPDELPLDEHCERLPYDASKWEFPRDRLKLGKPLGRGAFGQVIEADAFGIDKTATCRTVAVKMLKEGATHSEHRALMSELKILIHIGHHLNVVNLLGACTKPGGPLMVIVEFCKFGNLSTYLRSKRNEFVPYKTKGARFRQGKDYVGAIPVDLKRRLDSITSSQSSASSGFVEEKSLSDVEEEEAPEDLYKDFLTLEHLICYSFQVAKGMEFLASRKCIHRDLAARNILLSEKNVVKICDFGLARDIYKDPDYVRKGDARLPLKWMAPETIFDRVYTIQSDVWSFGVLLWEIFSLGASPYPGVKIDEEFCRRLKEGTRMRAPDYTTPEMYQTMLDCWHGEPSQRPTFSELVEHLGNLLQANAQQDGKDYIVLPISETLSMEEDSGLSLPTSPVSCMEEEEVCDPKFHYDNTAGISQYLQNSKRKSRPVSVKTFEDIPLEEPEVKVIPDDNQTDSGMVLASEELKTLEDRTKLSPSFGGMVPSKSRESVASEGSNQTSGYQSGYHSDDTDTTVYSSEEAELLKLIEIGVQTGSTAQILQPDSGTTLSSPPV
Kind of series: KDR kinase inhibition, phosphorylation of PLCγ substrate, scintillation Flash Plate. Format: biochemical. As to conditions: read-out: KDR, concentration that inhibits 50% of the kinase activity. The protocol: as §1
The cytoplasmic domain (residues 790 to 1356) of the human KDR enzyme was cloned in the form of a GST fusion in the pFastBac baculovirus expression vector. The protein was expressed in the SF21 cells, purified and activated by autophosphorylation. The substrate is composed of residues 658 to 850 of the PLCγ expressed and purified in the form of a GST fusion protein.
The KDR kinase activity is measured in the buffer 20 mM MOPS, 10 mM MgCl2, 10 mM MnCl2, 1 mM DTT, pH=7.4. The compounds are initially diluted in 100% DMSO, then prepared as a 10× solution in 30% DMSO/70% buffer. […] The radioactivity in each well is measured using a Trilux-βWallac radioactivity counter.
as §2
The inhibition of the KDR activity with the compound of the invention is expressed as a percentage of inhibition of the control activity determined in the absence of compound.

In another series the target is FGFR1 (Homo sapiens, UniProt P11362). Kind of series: FGFR kinase phosphorylation activity by radioactive labeling. Type of series: biochemical. As to conditions: read-out: FGFR1, concentration that inhibits 50% of the kinase activity. The protocol: 5. Screening of Molecules by Measuring, by Radioactive Labeling, the FGFR Kinase Phosphorylation Activity in the Presence of PLCγ Substrate
FGFR1, sequence (P11362 22-822, species assumed): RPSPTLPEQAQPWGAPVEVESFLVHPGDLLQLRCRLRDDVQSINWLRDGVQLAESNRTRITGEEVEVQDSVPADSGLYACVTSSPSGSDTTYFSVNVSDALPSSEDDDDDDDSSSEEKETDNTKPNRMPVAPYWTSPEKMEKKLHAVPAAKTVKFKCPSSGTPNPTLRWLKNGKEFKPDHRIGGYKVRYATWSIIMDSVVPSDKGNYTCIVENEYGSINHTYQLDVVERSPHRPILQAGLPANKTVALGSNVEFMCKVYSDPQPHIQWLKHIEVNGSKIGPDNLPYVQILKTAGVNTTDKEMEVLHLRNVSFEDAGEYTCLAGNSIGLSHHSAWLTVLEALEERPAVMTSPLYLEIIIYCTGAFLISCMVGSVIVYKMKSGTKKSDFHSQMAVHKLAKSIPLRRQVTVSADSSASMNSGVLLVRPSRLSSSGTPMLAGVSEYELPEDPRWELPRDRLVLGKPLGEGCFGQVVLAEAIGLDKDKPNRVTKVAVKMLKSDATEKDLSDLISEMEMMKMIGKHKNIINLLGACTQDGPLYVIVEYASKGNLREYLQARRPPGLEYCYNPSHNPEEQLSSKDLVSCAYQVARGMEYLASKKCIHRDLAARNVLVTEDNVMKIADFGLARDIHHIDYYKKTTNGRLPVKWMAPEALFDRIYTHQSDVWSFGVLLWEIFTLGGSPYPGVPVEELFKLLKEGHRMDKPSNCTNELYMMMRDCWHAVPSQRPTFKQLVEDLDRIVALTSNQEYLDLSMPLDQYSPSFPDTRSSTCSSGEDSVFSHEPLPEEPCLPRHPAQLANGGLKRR
The test is carried out in a similar manner to that carried out with the FLT1 enzyme by using, instead of 13 nM of Flt1, 27 nM of FGFR enzyme and mixed in the 96-well plates are 18 μl of GST-FGFR enzyme at 1.1 mg/ml (for a purity of 100%): (batch JCE3666).

As to `Cl.NC(=O)c1n[nH]cc1NCc1cc(F)cc(NC(=O)Nc2ccc(C(F)(F)F)cc2F)c1` [Example 2, 4-{3-[3-(2-Fluoro-4-trifluoromethylphenyl)ureido]-5-fluorobenzylamino}-1H-pyrazole-3-carboxamide hydrochloride], in the series on human hepatocytes, the “classification of the intrinsic clearance” value is “intermediate (Clint<0.040 ml·h^−1·10^−6 cell: intermediate intrinsic clearance)”, the intrinsic clearance value is listed as 0.055 ml/h/million of cells and the “inter-individual variability of intrinsic clearance” value was “low”. Further, on human Tie2, the IC50 was 39 nM. For the same compound, the IC50 on human KDR enzyme was determined as 2 nM. The IC50 at FGFR1 worked out at 92 nM.
As to `Cl.NC(=O)c1n[nH]cc1NCc1cc(F)cc(NC(=O)Nc2ccc(C(F)(F)F)cc2Cl)c1` [Example 1, 4-{3-[3-(2-Chloro-4-trifluoromethylphenyl)ureido]-5-fluorobenzylamino}-1H-pyrazole-3-carboxamide hydrochloride], in the series on human hepatocytes, the “classification of the intrinsic clearance” value was “intermediate (Clint<0.040 ml·h^−1·10^−6 cell: intermediate intrinsic clearance)”, the intrinsic clearance value is reported as 0.057 ml/hour/million of cells and the “inter-individual variability of intrinsic clearance” value was “low”. Besides, the IC50 on human Tie2 was found to be 36 nM. Besides, the IC50 at human KDR enzyme came out at 3 nM. Moreover, the IC50 at FGFR1 amounted to 54 nM.
